One data set relates to human dermal fibroblasts. Nature of the data set: Generation of pro-inflammatory cytokines by fibroblasts (multiplex ELISA). It counts as cell-based. To be noted: KBM 1.5 mM calcium, two days, culture fluids. Here is the method:
Fibroblasts were grown in KBM supplemented with 1.5 mM calcium (i.e., as in the fibroblast cytotoxicity assay) for two days. Culture fluids obtained at the end of the incubation period were assessed for several pro-inflammatory cytokines using a multiplex (ELISA-type) assay. Values shown are means and ranges based on duplicate samples in a single experiment. The experiment was repeated two times with similar results.
It is believed that the pro-inflammatory cytokines are “drivers” of the retinoid-induced skin irritation response. […] In this experiment, fibroblasts were cultured for two days in KBM supplemented with 1.5 mM calcium (i.e., as in the cytotoxicity assay). Culture fluids were collected after two days of incubation and subjected to a multiplex enzyme-linked immunosorbant assay (ELISA) for the following cytokines: TNF-α, IL-1β, IL-6, IL-8, MCP-1 and CXCL-1.

The test system of data set [1] is rhino mouse skin. Nature of the data set: Rhino mouse topical treatment: gross skin irritation (modified Draize scale). It counts as in vivo. The settings on record: for gross skin appearance / irritation: topical daily for 21 days, photographed Day 22, ATRA as 35 mg of 0.1% cream, Examples in DMSO. Here is the method: FIGS. 10A-C: Lack of Dose-related skin irritation after 21 day topical treatment of rhino mice with 100 μL DMSO control (10A) and 100 μL DMSO containing Example 2 at 0.1 (10B) and 0.3% concentrations (10C).
FIG. 11. […] The cumulative irritation score is a modified version of the Draize irritation scale, and the animals were assessed daily by an assessor who was blinded to the treatment given each mouse.
Rhino mice (HRS\J hr^rhhr^rh)) were obtained from Jackson Laboratories. Animals were recent weanlings; at this stage in the life of the rhinomouse, the phenotype (i.e., skin with numerous horn-filled utriculi) is well expressed and continues to be for several weeks. Both males and females were included. Animals were divided into treatment groups. Once in the laboratory, the mice were kept in temperature- and humidity-controlled rooms. All procedures during the in-life portion of the study were carried out in facilities of the Unit for Laboratory Animal Medicine (ULAM) at the University of Michigan—which is an AAALAC-certified institution. All procedures were carried out with approval by the University of Michigan Institutional Animal Care and Use Committee (IACUC).
(§1) As a control, Tretinoin-0.1% was used. […] This is a commonly-prescribed anti-acne medicine.
Animals were housed individually during the treatment phase of the study. During the treatment phase, animals were assessed daily for overall health, and for signs of skin irritation. The Draize scale was used to assess skin irritation. The Draize scale evaluates the parameters of erythema and edema. Each parameter was scored between 0 and 4+ with 0 indicating no difference from control mice and 4+ indicating maximum erythema or edema. In addition, animals were assessed for dryness/flaking/cracking (single score). The overall irritation score was a compilation of the three parameters in all mice from a treatment group. During the treatment phase, animals were weighed weekly.
FIG. 1 left provides a summation of the skin irritation response in the different treatment groups. In control mice, there was little evidence of skin irritation at any time throughout the study. […] The initial spike in irritation was followed by a dip and then secondary rise. This is consistent with what is typically seen with ATRA. […] Neither the control mouse nor the Compound 1 & 2 treated mice show visible signs of irritation in the skin. In contrast, skin from the ATRA-treated mouse is red, dry and flaky. Small cracks in the skin can be seen and there is significant edema.

The test system of data set [2] is rhino mouse skin. The experiment in a line: Rhino mouse topical treatment: skin histology (horn-filled utriculi, epidermal thickness, inflammation). The data set is classed as in vivo. The settings on record: for Epidermal thickness / Utriculus number / skin structure in histology (dermal thickness, utriculi, necrosis, infiltration) / inflammatory response / inflammatory cell infiltrate in histological sections (in words) / Inflammatory index: 21 days; for Inflammatory index: scored 0 to 4+.
Source text: FIGS. 12A-C: Efficacy of retinoids at normalizing structure of rhino mouse skin after topical treatment for 21 days.
FIGS. 13A-C: Dose related effect of Example 2 on rhino mouse skin.
The rhinomouse model is an industry-standard pre-clinical model for evaluation of retinoids for anti-acne activity. The mice can be treated topically over a course of days with the desired compound (either formulated or in liquid solvent). During the course of treatment, the animals can be evaluated grossly for skin irritation. At the end of the treatment phase, the animals are euthanized. Skin from treated sites can be evaluated for efficacy—reduction in the number of horn-filled utriculi—and for histological evidence of inflammation.
as §1
One day after the last treatment, animals were euthanized. The animals were injected with 7 ml 10% buffered formalin after euthanasia. 15 minutes later the treated area on the back of the mouse was removed and cut into 8 pieces. Every other piece was taken, so four pieces of skin were mounted in one cassette and fixed for histology. An extra piece of skin from a non-treated area was also evaluated.
Hematoxylin and eosin stained sections were evaluated microscopically for epidermal thickness with measurements made in the inter-follicular regions at 4 representative sites per tissue strip.
The number of horn-filled utriculi was determined by direct counting in the entire section of skin. Each of the four sections per biopsy was used for determining the number of utriculi. Section lengths were measured as a way to normalize findings. Typically, the section of skin varied from 16-20 mm.
Slides were examined microscopically and inflammation was scored on a 0 to 4+ basis. A score of zero indicated no inflammation while increasing collection of inflammatory cells was identified with increasing score. Slides were also evaluated to determine if inflammation was confined to the dermis or whether there was epidermal inflammation. Dermal inflammation was assessed to determine if inflammatory cells were scattered throughout the dermis or whether small abscesses were also present. Finally, the inflammatory lesions were evaluated to determine whether they consisted of primarily mononuclear cells, granulocytic cells or both. A similar scale has been used previously in the assessment of skin irritation.
At the end of the in-life portion of the study, mice were euthanized by CO2 overdose. Hematoxylin and eosin-stained histological sections from each mouse in the control, ATRA-treated and Compound 2-treated groups were evaluated with regard to the number of horn-filled utriculi, epidermal thickness, and inflammation. Briefly, the epidermis of control mice consisted of a thin epidermis with large numbers of horn-filled utriculi (98+10 per 20 mm of epidermal linear length). […] Both the ATRA-treated mouse (top right panel) the Compound 2 treated skin (bottom panel) show both much thickened […] and disappearance of utriculi. […] There were large numbers of inflammatory cells in the dermis. Microabscesses could be seen in places, and migration of inflammatory cells into the epidermis was also evident. The infiltrate consisted of both mononuclear cells and granulocytes. […] The three other experimental retinoids were also examined along with Compound 2. […] In FIG. 13 it can be seen that during the dosing period 0.1% of Compound 2 led to skin thickening, but incomplete resolution of the utricali, whereas at 0.3% the utricali were more fully resolved.

Data set [3] relates to serum pro-inflammatory cytokines. To be noted: mouse, in vivo. The text has this:
Each of the 4 experimental retinoids was made up in DMSO as 0.1% and 0.3% solutions. The material was applied to the treatment area (2 cm^2 area) on a dot marked area on the inter-scapular back) once daily for 7 consecutive days or for 21 consecutive days. The test agent was gently rubbed into the test site after application. As a control, Tretinoin-0.1% was used. […] This is a commonly-prescribed anti-acne medicine. A set amount of the test article, DMSO, DMSO plus test drug, or Tretinoin cream (35 mg) was delivered using a Gilson MICROMAN fully adjustable positive placement pipette.
Serum was obtained from all mice at the end of the study and evaluated for levels of pro-inflammatory cytokines. For this, the same multiplex ELISA used with human samples was employed except that mouse-recognizing antibodies replaced antibodies used to detect the human counterparts.

The mark [4] stands for this setting: topical, concentration not given.

Turning to `CC1=C(/C=C/C(C)=C/C=C/C(C)=C/C(=O)O)C(C)(C)CCC1` [ATRA, all-trans retinoic acid, reference compound], the “induction of pro-inflammatory cytokines (TNF-α, IL-1β, IL-6, IL-8, MCP-1, CXCL-1)” value (shortened to “induction of pro-inflammatory cytokines”) in the data set on human dermal fibroblasts is “induced a strong up-regulation of several cytokines”. Also, the “cumulative irritation score (modified Draize scale)” value in the data set with rhino mouse skin [1] (0.1% topical daily for 21 days) was “far more irritant”. The “gross skin appearance / irritation” value with rhino mouse skin [1] is listed as “considerable skin irritation, along with excessive skin flaking”. Besides, in the data set with rhino mouse skin [2] (0.1% topical), the Epidermal thickness turned out to be 68 ± 17; the Utriculus number is recorded as 2 ± 2 per 20 mm of epidermal linear length; the “skin structure in histology (dermal thickness, utriculi, necrosis, infiltration)” value was “overall dermal layer is considerably thicker, and the utriculi have gone, the dermal layer has large necrotic areas, and is heavily infiltrated with activated leukocytes and macrophages”. Also, the “inflammatory response / inflammatory cell infiltrate in histological sections (in words)” value in the data set on rhino mouse skin [2] (setting [4]) was “intense inflammatory cell infiltrate”. Further, in data set [3], the IL-1β serum level result is “low”, the IL-6 serum level came to 1.55 ± 0.66 pg/mL, the KC/IL-8 serum level turned out to be 23 ± 4 pg/mL and the MCP-1 serum level is 158 ^± 43 pg/mL. Besides, in data set [3], the TNF-α serum level result is listed as “low”; the “serum pro-inflammatory cytokine levels compared to control mice (in words)” value was “increase in levels of MCP-1, IL-6 and KC/IL-8”.

As to `CC1=C(/C=C/C(C)=C\C=C\C(C)=C\C(=O)N(C)CC(=O)C(C)(C)C)C(C)(C)CCC1` [Example 1, (2E,4E 6Z,8E)-N-(3,3-dimethyl-2-oxobutyl)-N,3,7-trimethyl-9-(2,6,6-trimethylcyclohex-1-en-1-yl)nona-2,4,6,8-tetraenamide], in the data set with human dermal fibroblasts, the “induction of pro-inflammatory cytokines” value is given as “no evidence of cytokine induction at the highest concentration”. For the same compound, the “induction of pro-inflammatory cytokines” value with human dermal fibroblasts (listed as Compound 1) is on record as “not observed”. The “gross skin appearance / irritation” value with rhino mouse skin [1] was “normal rhino mouse appearance”. Moreover, in the data set with rhino mouse skin [2] (setting [4]), the “inflammatory response / inflammatory cell infiltrate in histological sections (in words)” value is “did not produce an inflammatory response” and the “number of utriculi compared to control (in words)” value was “reduced the number of utriculi as compared to control”. Moreover, in data set [3], the IL-1β serum level entry is recorded as “low” and the TNF-α serum level result was “low”.

Turning to `CC1=C(/C=C/C(C)=C\C=C\C(C)=C\C(=O)N(C)CC(=O)c2ccccc2)C(C)(C)CCC1` [Example 2, (2E,4E 6Z,8E)-N,3,7-trimethyl—N-(2-oxo-2-phenylethyl)-9-(2,6,6-trimethylcyclohex-1-en-1-yl)nona-2,4,6,8-tetraenamide], in the data set with human dermal fibroblasts, the “induction of pro-inflammatory cytokines” value was “no evidence of cytokine induction at the highest concentration”. In the data set on human dermal fibroblasts (listed as Compound 2), the “induction of pro-inflammatory cytokines” value is reported as “not observed”. In addition, the “signs of serious skin irritation” value with rhino mouse skin [1] (0.1% and 0.3% in DMSO, topical, 21 days) was “did not show any signs of serious skin irritation at either dose”. Also, in the data set on rhino mouse skin [1], the “gross skin appearance / irritation” value was “normal rhino mouse appearance”. Besides, in the data set on rhino mouse skin [2] (0.1% topical), the Epidermal thickness is given as 45 ± 8; the Utriculus number was 7 ± 5 per 20 mm of epidermal linear length; the “skin structure in histology (dermal thickness, utriculi, necrosis, infiltration)” value is “normalization of dermal thickness, but still many structural remnants of utriculi”; the Inflammatory index is reported as 1.1 ± 0.6. In the data set on rhino mouse skin [2] (0.3% topical), the Epidermal thickness is listed as 44 ± 6, the Utriculus number was 5 ± 3 per 20 mm of epidermal linear length and the Inflammatory index is reported as 0.9 ± 0.4. The “inflammatory response / inflammatory cell infiltrate in histological sections (in words)” value in the data set on rhino mouse skin [2] (setting [4]) is “little inflammatory cell infiltrate”. In data set [3], the IL-1β serum level result is “low” and the TNF-α serum level result was “low”.

The record behind these values is US11148998B2, “Dimethyl-nonatetraenyl-trimethyl-cyclohexyl compounds and uses thereof” (The Regents of the University of Michigan, priority 2017, dated 2021).
